Laboratory results reported in patent US20160206688A1, “METHODS FOR TREATING BACTEREMIA AND OSTEOMYELITIS USING ORITAVANCIN” (THE MEDICINES COMPANY, priority 2013, published 2016).

Key:
[1] = tested on: S. agalactiae; test: Broth microdilution MIC, US isolates 2011-2012, blood vs non-blood; format: cell-based
Experimental: (§1) 527 E. faecalis, 176 E. faecium, and 790 BHS (335 S. pyogenes and 455 S. agalactiae) clinical, single patient, non-consecutive isolates were collected in 2011-2012 from 46 sites geographically distributed across the United States. The MICs were determined by broth microdilution testing performed in accordance with CLSI M7 and M100 guidelines. From the resulting database, this analysis focused on the activities of ORI, vancomycin (VAN), daptomycin (DAP), and linezolid (LZD) according to specimen source.

[2] = tested on: E. faecium; test: as above; format: cell-based
Experimental: as §1

[3] = tested on: S. pyogenes; test: as above; format: cell-based
Experimental: as §1

[4] = tested on: E. faecalis; test: as above; format: cell-based
Experimental: as §1

[5] = tested on: MDR SA; test: Microdilution MIC against MDR SA by specimen source; format: cell-based, S. aureus
Experimental: 456 clinical, single-patient, non-consecutive, MDR SA isolates from the known specimen sources collected in 2011-2012 were analyzed. MDR was defined as resistant to ≧3 of the following: erythromycin, clindamycin, gentamicin, levofloxacin, and trimethoprim/sulfamethoxazole. 382 were MRSA and 74 were MSSA. MICs were determined by microdilution testing in accordance with CLSI M7 and M100 guidelines. Although other comparator drugs were tested, this analysis focuses on the activities of ORI, VAN, DAP, and LZD.

[6] = tested on: Coagulase-negative staphylococci; test: Broth microdilution MIC, European bacteraemia isolates 2010-2012; format: cell-based, coagulase-negative staphylococci (CoNS); settings: Coagulase-negative staphylococci (646)
Experimental: (§2) A total of 2,904 clinical strains responsible for documented bacteremia among unique hospitalized patients in 38 hospitals in 11 European Union countries. Israel, Russia, Turkey and Ukraine were included in this study (2010-2012). Isolates were submitted to a central monitoring laboratory (JMI Laboratories, North Liberty. Iowa. USA), following previously established protocols. Bacterial species identification was performed by using an automated system (Vitek®2; bioMèrieux, Hazelwood, Mo., USA) or conventional biochemical algorithms, as required.
(§3) Isolates were tested for susceptibility by broth microdilution methods following the Clinical and Laboratory Standards Institute (CLSI; M07-A9, 2012) document. Susceptibility testing was performed in cation-adjusted Mueller-Hinton broth (CA-MHB) using dry-form panels manufactured by Thermo Fisher Scientific, formerly TREK Diagnostics Systems/Sensititre (Cleveland. Ohio, USA). These panels provide results equivalent to the CLSI-approved broth microdilution method supplemented with 0.002% polysorbate-80.
(§4) Quality assurance was performed by concurrent testing of CLSI-recommended (M100-S23, 2013) strains: E. faecalis ATCC 29212 and S. aureus ATCC 29213. Interpretation of comparator MIC results was in accordance with published CLSI (M100-S23) and European Committee on Antimicrobial Susceptibility Testing (EUCAST, 2013) criteria.

[7] = tested on: VRE; test: Susceptibility of the subject's blood culture isolate (treatment history); format: cell-based
Text: 11, 2013; the plan was for at least 8 weeks of antibiotic therapy.

[8] = tested on: E. faecalis; test: Broth microdilution MIC, European bacteraemia isolates 2010-2012; format: cell-based, Enterococcus faecalis
Experimental: as §2, §3, §4

[9] = tested on: S. aureus; test: as above; format: cell-based; settings: S. aureus Methicillin-resistant (1,708)
Experimental: as §2, §3, §4

[10] = tested on: E. faecium; test: as above; format: cell-based, Enterococcus faecium; settings: for % Resistant, CLSI / % Susceptible, CLSI: CLSI M100-S23 breakpoints; for % Resistant, EUCAST / % Susceptible, EUCAST: EUCAST 2013 breakpoints; for MIC90: read-out: MIC 90%
Experimental: as §2, §3, §4

[11] = E. faecalis (445), CLSI M100-S23 breakpoints
[12] = E. faecalis (445), EUCAST 2013 breakpoints
[13] = E. faecium Vancomycin-resistant (VanA-phenotype) (153)
[14] = E. faecium Vancomycin-susceptible (257)
[15] = Table 2, E. faecium Vancomycin-susceptible (257)

CC(=O)NC[C@H]1CN(c2ccc(N3CCOCC3)c(F)c2)C(=O)O1 [Linezolid, linezolid]
3.8%: % Resistant, CLSI [10, 13] | % Resistant, EUCAST [10, 13]
1 µg/mL: MIC90 ([1]; Blood, N 100) | MIC90 ([1]; Non-Blood, N 355) | MIC90 ([3]; Blood, N 53) | MIC90 ([3]; Non-Blood, N 282) | MIC90 ([6]; Table 2, read-out: MIC 90%) | MIC50 ([8]; Enterococcus faecalis, Table 2, E. faecalis (445), read-out: MIC 50%) | MIC50 ([9]; Staphylococcus aureus, Table 2, read-out: MIC 50%) | MIC90 ([9]; Staphylococcus aureus, Table 2, read-out: MIC 90%) | MIC50 ([10]; Enterococcus faecium, Table 2, E. faecium Vancomycin-resistant (VanA-phenotype) (153), read-out: MIC 50%) | MIC90 ([10]; Enterococcus faecium, Table 2, E. faecium Vancomycin-susceptible (257)) | MIC 50% [10, 15]
0.5 to 2 µg/mL: MIC Range ([8]; Table 2, E. faecalis (445), includes four VanA-phenotype strains)
0.5 µg/mL: MIC50 ([6]; Table 2, read-out: MIC 50%)
100%: % susceptible ([8]; E. faecalis strains, criteria not stated)
96.2%: % Susceptible, CLSI [10, 13] | % Susceptible, EUCAST [10, 13] | % susceptible ([10]; VanA-phenotype E. faecium, criteria not stated)
0.0%: % Resistant, CLSI [8, 11] | % Resistant, EUCAST [8, 12] | % Resistant, CLSI ([9]; CLSI M100-S23 breakpoints) | % Resistant, EUCAST ([9]; EUCAST 2013 breakpoints) | % Resistant, CLSI [10, 14] | % Resistant, EUCAST [10, 14]
0.8%: % Resistant, CLSI ([6]; CLSI M100-S23 breakpoints)
0.25 to 2 µg/mL: MIC Range ([9]; Table 2) | MIC Range [10, 15]
0.5 to 8 µg/mL: MIC Range ([10]; Table 2, E. faecium Vancomycin-resistant (VanA-phenotype) (153))
100.0%: % Susceptible, CLSI [8, 11] | % Susceptible, EUCAST [8, 12] | % Susceptible, CLSI ([9]; CLSI M100-S23 breakpoints) | % Susceptible, EUCAST ([9]; EUCAST 2013 breakpoints) | % Susceptible, CLSI [10, 14] | % Susceptible, EUCAST [10, 14]
2 µg/mL: MIC90 ([2]; Blood, N 84) | MIC90 ([2]; Non-Blood, N 92) | MIC90 ([4]; Blood, N 116) | MIC90 ([4]; Non-Blood, N 411) | MIC50 ([5]; Blood, n = 108) | MIC90 ([5]; Blood, n = 108) | Mode (MIC) ([5]; Blood, n = 108) | MIC50 ([5]; Respiratory, N = 157) | MIC90 ([5]; Respiratory, N = 157) | Mode (MIC) ([5]; Respiratory, N = 157) | MIC50 ([5]; Skin/Wound, N = 191) | MIC90 ([5]; Skin/Wound, N = 191) | Mode (MIC) ([5]; Skin/Wound, N = 191) | MIC90 ([8]; Enterococcus faecalis, Table 2, E. faecalis (445), read-out: MIC 90%) | MIC90 ([10]; Enterococcus faecium, Table 2, E. faecium Vancomycin-resistant (VanA-phenotype) (153))
susceptible: susceptibility ([7]; 2012 July)

CN(C)c1cc(NC(=O)CNC(C)(C)C)c(O)c2c1C[C@H]1C[C@H]3[C@H](N(C)C)C(O)=C(C(N)=O)C(=O)[C@@]3(O)C(O)=C1C2=O [tigecycline]
susceptible: susceptibility ([7]; 2012 July)

CCCCCCCCCCNCCN[C@@]1(C)C[C@H](O[C@H]2[C@H](Oc3c4cc5cc3Oc3ccc(cc3Cl)[C@@H](O)[C@@H](NC(=O)[C@@H](CC(C)C)NC)C(=O)N[C@@H](CC(N)=O)C(=O)N[C@H]5C(=O)N[C@H]3C(=O)N[C@H](C(=O)N[C@H](C(=O)O)c5cc(O)c(CNCP(=O)(O)O)c(O)c5-c5cc3ccc5O)[C@H](O)c3ccc(c(Cl)c3)O4)O[C@H](CO)[C@@H](O)[C@@H]2O)O[C@@H](C)[C@H]1O [televancin]
resistant: susceptibility ([7]; 2012 December)
